Data reported in article PMC6429263, “Evolution and Antibacterial Evaluation of 8-Hydroxy-cycloberberine Derivatives as a Novel Family of Antibacterial Agents Against MRSA” (Molecules, 2019).
Values joined by “and” are separate entries in the source; they are usually repeats but may differ in a detail not shown here. Identical values can stand only once. Counter-ions that a name gives are not always drawn.

Experiments:
VISA ATCC 700698 = assay: MIC, agar dilution, VISA ATCC 700698; assay type: cell-based; conditions: Staphylococcus aureus; VISA ATCC 700698; read-out: MIC
MRSA 16-34 = assay: MIC, agar dilution, MRSA 16-34; assay type: cell-based; conditions: Staphylococcus aureus; MRSA 16-34; read-out: MIC
MRSA 13-18 = assay: MIC, agar dilution, MRSA 13-18; assay type: cell-based; conditions: Staphylococcus aureus; MRSA 13-18; read-out: MIC
MSSA ATCC 29213 = assay: MIC, agar dilution, MSSA ATCC 29213; assay type: cell-based, S. aureus; conditions: Staphylococcus aureus; MSSA ATCC 29213; read-out: MIC
MSSE 16-5 = assay: MIC, agar dilution, MSSE 16-5 (clinical isolate); assay type: cell-based, S. epidermidis; conditions: Staphylococcus epidermidis; MSSE 16-5, isolated from patients in China; read-out: MIC
MRSE 13-3 = assay: MIC, agar dilution, MRSE 13-3; assay type: cell-based, S. epidermidis; conditions: Staphylococcus epidermidis; MRSE 13-3; read-out: MIC
MSSE ATCC 12228 = assay: MIC, agar dilution, MSSE ATCC 12228; assay type: cell-based, S. epidermidis; conditions: Staphylococcus epidermidis, ATCC12228; MSSE ATCC 12228; read-out: MIC
MRSE 16-5 = assay: MIC, agar dilution, MRSE 16-5; assay type: cell-based, S. epidermidis; conditions: Staphylococcus epidermidis; MRSE 16-5; read-out: MIC
MRSA 13-23 = assay: MIC, agar dilution, MRSA 13-23; assay type: cell-based; conditions: Staphylococcus aureus; MRSA 13-23; read-out: MIC
MRSA ATCC 43300 = assay: MIC, agar dilution, MRSA ATCC 43300; assay type: cell-based; conditions: Staphylococcus aureus; MRSA ATCC 43300; read-out: MIC
MRSA ATCC-B AA-1708 = assay: MIC, agar dilution, MRSA ATCC-BAA-1708 (mupA positive); assay type: cell-based; conditions: Staphylococcus aureus; MRSA ATCC-BAA-1708, mupA positive (mupirocin resistance); read-out: MIC
S.h ATCC 35982 = assay: MIC, agar dilution, S.h ATCC 35982; assay type: cell-based; conditions: Staphylococcus hominis, ATCC35982; S. hominis ATCC 35982; read-out: MIC
MSSA 16-1 = assay: MIC, agar dilution, MSSA 16-1 (clinical isolate); assay type: cell-based, S. aureus; conditions: Staphylococcus aureus; MSSA 16-1, isolated from patients in China; read-out: MIC
MSSA 15 = assay: MIC, agar dilution, MSSA 15 (clinical isolate); assay type: cell-based, S. aureus; conditions: Staphylococcus aureus; MSSA 15, isolated from patients in China; read-out: MIC
MRSA ATCC -BAA-976 = assay: MIC, agar dilution, MRSA ATCC-BAA-976 (clindamycin-resistant); assay type: cell-based; conditions: Staphylococcus aureus; MRSA ATCC-BAA-976, clindamycin-resistant S. aureus; read-out: MIC
VISA ATCC 700699 = assay: MIC, agar dilution, VISA ATCC 700699; assay type: cell-based; conditions: Staphylococcus aureus; VISA ATCC 700699; read-out: MIC
S.s ATCC 15305 = assay: MIC, agar dilution, S.s ATCC 15305; assay type: cell-based; conditions: Staphylococcus saprophyticus, ATCC15305; S. saprophyticus ATCC 15305; read-out: MIC

Work on `COc1ccc2c(c[n+]3ccc4cc5c(c6c(Cc7ccccc7)cc2c3c46)OCO5)c1O` (as salt: chloride) [13a, 1,2-Methylenedioxy-8-hydroxy-9-methoxy-13-benzylcycloberberine chloride] yielded a melting point of 248 to 250 °C.
`COc1ccc2c(c[n+]3ccc4cc5c(c6c(Cc7ccc(F)cc7)cc2c3c46)OCO5)c1O` (as salt: chloride) [13b, 1,2-Methylenedioxy-8-hydroxy-9-methoxy-13-p-fluorobenzylcycloberberine chloride] gave a melting point of 203 to 205 °C.
Compound `COc1ccc2c(c[n+]3ccc4cc5c(c6c(Cc7ccc(F)cc7F)cc2c3c46)OCO5)c1O` (as salt: chloride) [13c, 1,2-Methylenedioxy-8-hydroxy-9-methoxy-13-2′,4′-difluorobenzylcycloberberine chloride] has a melting point of 218 to 220 °C.
For `COc1ccc2c(c[n+]3ccc4cc5c(c6c(Cc7c(F)cccc7F)cc2c3c46)OCO5)c1O` (as salt: chloride) [13d, 1,2-Methylenedioxy-8-hydroxy-9-methoxy-13-2′,6′-difluorobenzylcycloberberine chloride], the melting point was 214 to 216 °C.
With `COc1ccc2c(c[n+]3ccc4cc5c(c6c(Cc7ccc(Cl)cc7)cc2c3c46)OCO5)c1O` (as salt: chloride) [13e, 1,2-Methylenedioxy-8-hydroxy-9-methoxy-13-p-chlorobenzylcycloberberine chloride] the melting point was 199 to 201 °C.
For `COc1ccc2c(c[n+]3ccc4cc5c(c6c(Cc7ccc(Br)cc7)cc2c3c46)OCO5)c1O` (as salt: chloride) [13f, 1,2-Methylenedioxy-8-hydroxy-9-methoxy-13-p-bromobenzylcycloberberine chloride], the melting point was 207 to 209 °C.
Work on `COc1ccc2c(c[n+]3ccc4cc5c(c6c(Cc7ccccc7C)cc2c3c46)OCO5)c1O` (as salt: chloride) [13g, 1,2-Methylenedioxy-8-hydroxy-9-methoxy-13-o-methylbenzylcycloberberine chloride] yielded a melting point of 203 to 205 °C.
With `COc1ccc2c(c[n+]3ccc4cc5c(c6c(Cc7cccc(C)c7)cc2c3c46)OCO5)c1O` (as salt: chloride) [13h, 1,2-Methylenedioxy-8-hydroxy-9-methoxy-13-m-methylbenzylcycloberberine chloride] the melting point was 203 to 205 °C.
`COc1ccc2c(c[n+]3ccc4cc5c(c6c(Cc7ccc(C)cc7)cc2c3c46)OCO5)c1O` (as salt: chloride) [13i, 1,2-Methylenedioxy-8-hydroxy-9-methoxy-13-p-methylbenzylcycloberberine chloride] showed a melting point of 229 to 231 °C.
`COc1ccc2c(c[n+]3ccc4cc5c(c6c(Cc7cc(C)cc(C)c7)cc2c3c46)OCO5)c1O` (as salt: chloride) [13j, 1,2-Methylenedioxy-8-hydroxy-9-methoxy-13-3′,5′-dimethylbenzylcycloberberine chloride] gave a melting point of 218 to 220 °C.
`COc1ccc2c(c[n+]3ccc4cc5c(c6c(Cc7ccc(C(C)(C)C)cc7)cc2c3c46)OCO5)c1O` (as salt: chloride) [13k, 1,2-Methylenedioxy-8-hydroxy-9-methoxy-13-p-tert-butylmethylbenzylcyclo berberine chloride] showed a melting point of 212 to 214 °C.
For `COc1ccc2c(c[n+]3ccc4cc5c(c6c(Cc7ccc(OC(F)(F)F)cc7)cc2c3c46)OCO5)c1O` (as salt: chloride) [13l, 1,2-Methylenedioxy-8-hydroxy-9-methoxy-13-p-trifluoromethoxybenzylcyclo berberine chloride], the melting point was 185 to 187 °C.
`COc1ccc2c(c[n+]3ccc4cc5c(c6c(Cc7ccccc7C#N)cc2c3c46)OCO5)c1O` (as salt: chloride) [13m, 1,2-Methylenedioxy-8-hydroxy-9-methoxy-13-o-cyanbenzylcycloberberine chloride] gave a melting point of 209 to 211 °C.
Work on `COc1ccc2c(c[n+]3ccc4cc5c(c6c(Cc7cccc(C#N)c7)cc2c3c46)OCO5)c1O` (as salt: chloride) [13n, 1,2-Methylenedioxy-8-hydroxy-9-dimethoxy-13-m-cyanbenzylcycloberberine chloride] yielded a melting point of 189 to 191 °C.
`COc1ccc2c(c[n+]3ccc4cc5c(c6c(Cc7ccc(C#N)cc7)cc2c3c46)OCO5)c1O` (as salt: chloride) [13o, 1,2-Methylenedioxy-8-hydroxy-9-dimethoxy-13-p-cyanbenzylcycloberberine chloride] showed a melting point of 197 to 199 °C.
In the case of `COc1ccc2c(c[n+]3ccc4cc5c(c6c(Cc7ccccc7[N+](=O)[O-])cc2c3c46)OCO5)c1O` (as salt: chloride) [13p, 1,2-Methylenedioxy-8-hydroxy-9-methoxy-13-o-nitrobenzylcycloberberine chloride], the melting point is reported as 199 to 201 °C.
For `COc1ccc2c(c[n+]3ccc4cc5c(c6c(Cc7cccc([N+](=O)[O-])c7)cc2c3c46)OCO5)c1O` (as salt: chloride) [13q, 1,2-Methylenedioxy-8-hydroxy-9-methoxy-13-m-nitrobenzylcycloberberine chloride], the melting point was 186 to 188 °C.
`COc1ccc2c(c[n+]3ccc4cc5c(c6c(Cc7ccc([N+](=O)[O-])cc7)cc2c3c46)OCO5)c1O` (as salt: chloride) [13r, 1,2-Methylenedioxy-8-hydroxy-9-methoxy-13-p-nitrobenzylcycloberberine chloride] gave a melting point of 186 to 188 °C.
For `COc1ccc2c(c[n+]3ccc4cc5c(c6c(C(C)c7ccccc7)cc2c3c46)OCO5)c1O` (stereo not shown) (as salt: chloride) [13s, 1,2-Methylenedioxy-8-hydroxy-9-methoxy-13-1′-phenylethylcycloberberine chloride], the melting point was 213 to 215 °C.
`COC(=O)C(c1ccccc1)c1cc2c3ccc(OC)c(O)c3c[n+]3ccc4cc5c(c1c4c23)OCO5` (stereo not shown) (as salt: chloride) [13t, 1,2-Methylenedioxy-8-hydroxy-9-methoxy-13-2′-methoxy-2′-oxo-1′-phenylethylcycloberberine chloride] showed a melting point of 173 to 175 °C.
Compound `CCCc1cc2c3ccc(OC)c(O)c3c[n+]3ccc4cc5c(c1c4c23)OCO5` (as salt: chloride) [15b, 1,2-Methylenedioxy-8-hydroxy-9-methoxy-13-propylcycloberberine chloride] has a melting point of 165 to 167 °C.
In the case of `CCCCc1cc2c3ccc(OC)c(O)c3c[n+]3ccc4cc5c(c1c4c23)OCO5` (as salt: chloride) [15c, 1,2-Methylenedioxy-8-hydroxy-9-methoxy-13-butylcycloberberine chloride], the melting point is reported as 162 to 164 °C.
With `COc1ccc2c(c[n+]3c4c2ccc2c(OC)c(OC)cc(c24)CC3)c1O` (as salt: chloride) [compound 6, 1,2-Dimethoxy-8-hydroxy-9-methoxycycloberberine Chloride] the melting point was 176 to 178 °C and 180 to 182 °C.
For `COc1ccc2c(c[n+]3c4c2ccc2c(O)c(O)cc(c24)CC3)c1O` (as salt: chloride) [compound 10, 1,2,8-Trihydroxy-9-methoxycycloberberine Chloride], the melting point was 191 to 193 °C.
With `COc1ccc2c(c[n+]3ccc4cc5c(c6c(Cc7ccc(F)cc7)cc2c3c46)OCO5)c1O` [13b, 1,2-Methylenedioxy-8-hydroxy-9-methoxy-13-p-fluorobenzylcycloberberine chloride] the MIC (VISA ATCC 700698) was > 64 mg/L, the MIC (MRSA 16-34) was > 64 mg/L and the MIC (MRSA 13-18) was > 64 mg/L. For the same compound, the MIC (MSSA ATCC 29213) was > 64 mg/L, the MIC (MSSE 16-5) was > 64 mg/L and the MIC (MRSE 13-3) was > 64 mg/L. The MIC (MSSE ATCC 12228) was > 64 mg/L, the MIC (MRSE 16-5) was > 64 mg/L and the MIC (MRSA 13-23) was > 64 mg/L. The MIC (MRSA ATCC 43300) was > 64 mg/L, the MIC (MRSA ATCC-B AA-1708) was > 64 mg/L and the MIC (S.h ATCC 35982) was > 64 mg/L. For the same compound, the MIC (MSSA 16-1) was > 64 mg/L, the MIC (MSSA 15) was > 64 mg/L and the MIC (MRSA ATCC -BAA-976) was > 64 mg/L. The MIC (VISA ATCC 700699) was > 64 mg/L and the MIC (S.s ATCC 15305) was > 64 mg/L.
`COc1ccc2c(c[n+]3ccc4cc5c(c6c(Cc7ccc(F)cc7F)cc2c3c46)OCO5)c1O` [13c, 1,2-Methylenedioxy-8-hydroxy-9-methoxy-13-2′,4′-difluorobenzylcycloberberine chloride] gave an MIC (VISA ATCC 700698) of 8 mg/L, an MIC (MRSA 16-34) of 8 mg/L and an MIC (MRSA 13-18) of 16 mg/L. The MIC (MSSA ATCC 29213) was 8 mg/L, the MIC (MSSE 16-5) was 8 mg/L and the MIC (MRSE 13-3) was 8 mg/L. It also gave an MIC (MSSE ATCC 12228) of 8 mg/L, an MIC (MRSE 16-5) of 8 mg/L and an MIC (MRSA 13-23) of 8 mg/L. For the same compound, the MIC (MRSA ATCC 43300) was 8 mg/L, the MIC (MRSA ATCC-B AA-1708) was 4 mg/L and the MIC (S.h ATCC 35982) was 8 mg/L. For the same compound, the MIC (MSSA 16-1) was 8 mg/L, the MIC (MSSA 15) was 8 mg/L and the MIC (MRSA ATCC -BAA-976) was 8 mg/L. The MIC (VISA ATCC 700699) was 8 mg/L and the MIC (S.s ATCC 15305) was 16 mg/L.
